The series is described as follows: Surface tensiometer characterization: critical micelle concentration and surface tension. In kind it is physicochemical. As to conditions: surface tensiometer; FIG. 2. The source says:
Dibenzhydryl resorcinol ethoxylates produced in Example 2 were characterized using a surface tensiometer to determine critical micelle concentration and surface tension.

In patent US20220017444A1, “BENZ[…] SURFACTANTS” (INDORAMA VENTURES OXIDES LLC, priority 2018, published 2022) one finds critical micelle concentration data, which are given here for one substance.

On to Dibenzhydryl Resorcinol Ethoxylate, for which the critical micelle concentration is recorded as 4 ppm.
